Reference: patent US20220251187A1, “P2X7 RECEPTOR TARGETED THERAPY” (BIOSCEPTRE (AUST) PTY LTD, priority 2019, published 2022)

Key:
Format in all cases: cell-based
[1] = tested on: Kelly cells; assay: CellTiter-Blue cell viability assay after chemotherapy; conditions: increasing doses, 72 hours, FIG. 1C, 1D
Experimental: (§1) 4,000 cells were seeded in a 96 well plate and allowed to adhere over-night. Cells were then treated with increasing amount of chemotherapy or vehicle control for 72 hours to induce varying amount of cell killing. Cell viability was then measured using CellTiter-Blue Cell Viability Assay form Promega following manufacturer's instruction.

[2] = tested on: Kelly cells; assay: nfP2X7 antibody binding to live cells by flow cytometry after chemotherapy; conditions: doxorubicin 0.0625 μM to 0.25 μM or 5 Fu 1 μM to 8 μM, 72 hours, FIG. 2B, 2C
Experimental: (§2) 500,000 cells were seeded in a 6 well plate and allowed to adhere over-night. Cells were then treated with increasing amount of chemotherapy or vehicle control for 72 hours to induce varying amount of cell killing. The remaining live cells were dissociated in PBS based enzyme-free dissociation buffer, washed and re-suspended in staining buffer (PBS, 2% FCS). Cells were then stained for 1 h with primary antibody raised against non-functional P2X7 (here 2-2-1hFc), washed 3 times in staining buffer prior to a 1 h incubation with fluorescently coupled secondary antibody and 7AAD. Fluorescence staining on live cells was acquired using a BD Accuri flow cytometer and analysed with FlowJo-flow cytometry analysis software. Median fluorescence intensity of the live cell population was analysed using 7AAD live dead staining.

[3] = tested on: P2X7 receptor; assay: nfP2X7 induction by Condition Media from Doxorubicin treated RPMI-8226 cells with P2X7 inhibitor; conditions: Condition Media from RPMI-8226 treated with Doxorubicin; FIG. 6b
[4] = tested on: RPMI-8226 cells; assay: CellTiter-Blue cell viability assay after chemotherapy; conditions: increasing doses, 72 hours, FIG. 1B
Experimental: as §1

[5] = tested on: RPMI-8226 cells; assay: nfP2X7 antibody binding to live cells by flow cytometry after chemotherapy; conditions: doxorubicin 0.0625 μM to 0.25 μM, 72 hours, FIG. 2A
Experimental: as §2

[6] = tested on: myeloma RPMI-8226 cell line; assay: Ethidium influx in response to BzATP stimulation (P2X7 pore opening); conditions: 0.5 mM BzATP, FIG. 1A
Experimental: Normalised ethidium influx in response to 0.5 mM BzATP stimulation in the myeloma RPMI-8226 and neuroblastoma Kelly cell lines. Mean of three independent experiments is shown.

[7] = tested on: nfP2X7; assay: HMGB1-driven increase in nfP2X7; conditions: FIG. 6a

O=c1[nH]cc(F)c(=O)[nH]1 [5 Fu, Fluorouracil]
Effect on cell viability (CTB assay) [1]: cell death | Effect on nfP2X7 antibody binding to live cells [2]: increased nfPX7 antibody binding

COc1ccc(CC(=O)NC(N=C(NC#N)Nc2cccc3ncccc23)C(C)(C)C)cc1OC (stereo not drawn) [A 740003, N-[1-[[(Cyanoamino)(5-quinolinylamino)methylene]amino]-2,2-dimethylpropyl]-3,4-dimethoxybenzeneacetamide]
Block of conditioned media induced nfP2X7 induction [3]: does not block

COc1cccc2c1C(=O)c1c(O)c3c(c(O)c1C2=O)C[C@@](O)(C(=O)CO)C[C@@H]3O[C@H]1C[C@H](N)[C@H](O)[C@H](C)O1 [Doxorubicin]
Effect on cell viability (CTB assay) [1]: cell death | Effect on cell viability (CTB assay) [4]: cell death | Effect on nfP2X7 antibody binding to live cells [2]: increased nfPX7 antibody binding | Effect on nfP2X7 antibody binding to live cells [5]: increased nfPX7 antibody binding

Nc1ncnc2c1ncn2[C@@H]1O[C@H](COP(=O)(O)OP(=O)(O)OP(=O)(O)O)[C@@H](OC(=O)c2ccc(C(=O)c3ccccc3)cc2)[C@H]1O [BzATP]
P2X7 pore opening (normalised ethidium influx) [6]: able to open the P2X7 pore

B1: HMGB1: DAMP released by chemo- and radio-therapy (protein, UniProt P09429 1-215, looked up)
High mobility group protein B1: MGKGDPKKPRGKMSSYAFFVQTCREEHKKKHPDASVNFSEFSKKCSERWKTMSAKEKGKFEDMAKADKARYEREMKTYIPPKGETKKKFKDPNAPKRPPSAFFLFCSEYRPKIKGEHPGLSIGDVAKKLGEMWNNTAADDKQPYEKKAAKLKEKYEKDIAAYRAKGKPDAAKKGVVKAEKSKKKKEEEEDEEDEEDEEEEEDEEDEDEEEDDDDE
Effect on nfP2X7 level [7]: drives the increase in nfP2X7
